Results: patent US12497386B2, “Estrogen receptor-modulating compounds” (RADIUS PHARMACEUTICALS, INC., priority 2018, dated 2025)

System: MCF-7 cells
Experiment: MCF-7 Proliferation Inhibition Assay
Type: cell-based, human
Conditions: Homo sapiens, MCF7, 168 h, 10 pM dose of E2, 7 days incubation, CellTiterGlo viability
Experimental: Proliferation Assay in MCF-7 and T47D Cells
MCF-7 and T47D cells were stripped for 3 days in phenol red-free RPMI1640 media containing 10% charcoal-stripped fetal bovine serum (CS-FBS) and 1% Penicillin/streptomycin (P/S). Cells (volume of 90 μl/well) were seeded in 96 well plates at a density of 2500 cells/well for MCF-7 cells and 1500 cells/well for T47D cells. On the following day, plates were treated with the test compounds (10× concentration in media, volume of 10 μl/well added) both in the absence and in the presence of two doses of E2 (10 pM and 1 nM). The cells were incubated with test compounds for 7 days. The viability of the cells was assessed using CellTiterGlo (Promega, Cat #G7573) according to the manufacturer's instructions. Growth inhibition curves and IC50 values were calculated using the GraphPadPrism 6.0 software. Data values shown in Table 1 were obtained using the 10 pM dose of E2.

`Cc1ccccc1-c1sc2cc(O)ccc2c1Oc1ccc(CCNC2CC2)cc1` [BT-05, 3-(4-(2-(Cyclopropylamino)ethyl)phenoxy)-2-(o-tolyl)benzo[b]thiophen-6-ol] was tested, and the IC50 was less than 1 nM.

In the case of `Cc1ccccc1-c1c(F)c2cc(O)ccc2n1Cc1ccc(CCNC2CCC2)cc1` [Compound D-46, 1-(4-(2-(Cyclobutylamino)ethyl)benzyl)-3-fluoro-2-(o-tolyl)-1H-indol-5-ol], the IC50 is reported as less than 1 nM.

`CCCNCCc1ccc(C2c3ccc(O)cc3CCC2c2ccc(C(C)C)cc2)cc1` (centres unmarked) [LA-32, 6-(4-Isopropylphenyl)-5-(4-(2-(propylamino)ethyl)phenyl)-5,6,7,8-tetrahydronaphthalen-2-ol] was tested, and the IC50 was less than 1 nM.

`CCNCCc1ccc(Cn2c(-c3c(C)cccc3C)c(F)c3cc(O)ccc32)cc1` [Compound D-78, 2-(2,6-Dimethylphenyl)-1-(4-(2-(ethylamino)ethyl)benzyl)-3-fluoro-1H-indol-5-ol] showed an IC50 of less than 1 nM.

In the case of `CCCNCCc1ccc(Cn2c(-c3ccccc3C)c(F)c3c4cn[nH]c4ccc32)cc1` [Compound D-91, N-(4-((8-fluoro-7-(o-tolyl)pyrrolo[3,2-e]indazol-6(3H)-yl)methyl)phenethyl)propan-1-amine], the IC50 is reported as less than 1 nM.

`Cc1ccccc1-c1c(F)c2c3cn[nH]c3ccc2n1Cc1ccc(CCNC2CCC2)cc1` [Compound D-89, N-(4-((8-Fluoro-7-(o-tolyl)pyrrolo[3,2-e]indazol-6(3H)-yl)methyl)phenethyl)cyclobutanamine] was tested, and the IC50 was less than 1 nM.

In the case of `Cc1ccccc1-c1c(F)c2cc(O)ccc2n1Cc1ccc(CCNC2CC2)cc1` [Compound D-28, 1-(4-(2-(Cyclopropylamino)ethyl)benzyl)-3-fluoro-2-(o-tolyl)-1H-indol-5-ol], the IC50 is reported as less than 1 nM.

In the case of `CCNCCc1ccc(Cn2c(-c3ccccc3C)c(F)c3c4cn[nH]c4ccc32)cc1` [Compound D-85, N-Ethyl-2-(4-((8-fluoro-7-(o-tolyl)pyrrolo[3,2-e]indazol-6(3H)-yl)methyl)phenyl)ethan-1-amine], the IC50 is reported as less than 1 nM.

Work on `Cc1ccccc1-c1c(F)c2c3cn[nH]c3ccc2n1Cc1ccc(CCNCC2CC2)cc1` [Compound D-88, N-(Cyclopropylmethyl)-2-(4-((8-fluoro-7-(o-tolyl)pyrrolo[3,2-e]indazol-6(3H)-yl)methyl)phenyl)ethan-1-amine] yielded an IC50 of less than 1 nM.

`Cc1ccccc1-c1c(F)c2cc(O)ccc2n1Cc1ccc(CC(C)NC2CC2)cc1` [Compound D-32, 1-(4-(2-(Cyclopropylamino)propyl)benzyl)-3-fluoro-2-(o-tolyl)-1H-indol-5-ol] was tested, and the IC50 was less than 1 nM.

Molecule `Cc1ccccc1-c1c(F)c2cc(O)ccc2n1Cc1ccc(CCNCCF)cc1` [Compound D-70, 3-Fluoro-1-(4-(2-((2-fluoroethyl)amino)ethyl)benzyl)-2-(o-tolyl)-1H-indol-5-ol] has an IC50 of less than 1 nM.

Molecule `CC(C)c1ccc(C2CCc3cc(O)ccc3C2c2ccc(CCNCC3CC3)cc2)cc1` (centres unmarked) [LA-33, 5-(4-(2-((Cyclopropylmethyl)amino)ethyl)phenyl)-6-(4-isopropylphenyl)-5,6,7,8-tetrahydronaphthalen-2-ol] has an IC50 of less than 1 nM.

`Cc1ccccc1-c1c(F)c2c3cn[nH]c3ccc2n1Cc1ccc(CCNC2CC2)cc1` [Compound D-90, N-(4-((8-Fluoro-7-(o-tolyl)pyrrolo[3,2-e]indazol-6(3H)-yl)methyl)phenethyl)cyclopropanamine] gave an IC50 of less than 1 nM.

Work on `Cc1ccccc1[C@H]1CCc2cc(O)ccc2[C@H]1c1ccc(CCNCC2CC2)cc1` [LA-22, (5R,6S)-5-(4-(2-((cyclopropylmethyl)amino)ethyl)phenyl)-6-(o-tolyl)-5,6,7,8-tetrahydronaphthalen-2-ol] yielded an IC50 of less than 1 nM.

`Oc1ccc2c(c1)c(F)c(-c1ccccc1C(F)(F)F)n2Cc1ccc(CCNC2CC2)cc1` [Compound D-33, 1-(4-(2-(Cyclopropylamino)ethyl)benzyl)-3-fluoro-2-(2-(trifluoromethyl)phenyl)-1H-indol-5-ol] gave an IC50 of less than 1 nM.

In the case of `CCNCCc1ccc(Cn2c(-c3ccc(OC)cc3)c(C)c3cc(O)ccc32)cc1` [Compound D-01, 1-(4-(2-(Ethylamino)ethyl)benzyl)-2-(4-methoxyphenyl)-3-methyl-1H-indol-5-ol], the IC50 is reported as 1 to 10 nM.

`CCNCCc1ccc([C@@H]2c3ccc(O)cc3CC[C@@H]2c2ccccc2)cc1` [LA-18, (5R,6S)-5-(4-(2-(Ethylamino)ethyl)phenyl)-6-phenyl-5,6,7,8-tetrahydronaphthalen-2-ol] gave an IC50 of less than 1 nM.

Work on `Cc1ccccc1-c1sc2cc(O)ccc2c1Oc1ccc(CCNCC2CC2)cc1` [BT-12, 3-(4-(2-((Cyclopropylmethyl)amino)ethyl)phenoxy)-2-(o-tolyl)benzo[b]thiophen-6-ol] yielded an IC50 of less than 1 nM.

`Cc1ccccc1C1=C(Cc2ccc(CCNC3CC3)cc2)c2ccc(O)cc2OCC1` [Bx-06, 5-(4-(2-(Cyclopropylamino)ethyl)benzyl)-4-(o-tolyl)-2,3-dihydrobenzo[b]oxepin-8-ol] gave an IC50 of less than 1 nM.

With `CCCNCCc1ccc(Cn2c(-c3ccc(OC)cc3C)c(F)c3cc(O)ccc32)cc1` [Compound D-96, 3-Fluoro-2-(4-methoxy-2-methylphenyl)-1-(4-(2-(propylamino)ethyl)benzyl)-1H-indol-5-ol] the IC50 was less than 1 nM.

`CCCNCCc1ccc(Cn2c(-c3ccccc3OC)c(F)c3cc(O)ccc32)cc1` [Compound D-87, 3-Fluoro-2-(2-methoxyphenyl)-1-(4-(2-(propylamino)ethyl)benzyl)-1H-indol-5-ol] showed an IC50 of less than 1 nM.

Molecule `CCNCCc1ccc(Cn2c(-c3ccccc3C(F)(F)F)c(F)c3cc(O)ccc32)cc1` [Compound D-34, 1-(4-(2-(Ethylamino)ethyl)benzyl)-3-fluoro-2-(2-(trifluoromethyl)phenyl)-1H-indol-5-ol] has an IC50 of less than 1 nM.

For `CCNCCc1ccc(C2c3ccc(O)cc3CCC2c2ccc(C(C)C)cc2)cc1` (centres unmarked) [LA-31, 5-(4-(2-(Ethylamino)ethyl)phenyl)-6-(4-isopropylphenyl)-5,6,7,8-tetrahydronaphthalen-2-ol], the IC50 was less than 1 nM.

With `Cc1ccccc1-c1c(F)c2cc(O)ccc2n1Cc1ccc(CCNCC2CC2)cc1` [Compound D-39, 1-(4-(2-((Cyclopropylmethyl)amino)ethyl)benzyl)-3-fluoro-2-(o-tolyl)-1H-indol-5-ol] the IC50 was less than 1 nM.

For `CCNCCc1ccc(Cn2c(-c3ccc(OC)cc3)c(Cl)c3cc(O)ccc32)cc1` [Compound D-13, 3-Chloro-1-(4-(2-(ethylamino)ethyl)benzyl)-2-(4-methoxyphenyl)-1H-indol-5-ol], the IC50 was 1 to 10 nM.

`COc1ccc(-c2c(C)c3cc(O)ccc3n2Cc2ccc(CCNC3CC3)cc2)cc1` [Compound D-02, 1-(4-(2-(Cyclopropylamino)ethyl)benzyl)-2-(4-methoxyphenyl)-3-methyl-1H-indol-5-ol] showed an IC50 of 1 to 10 nM.

`CCNCCc1ccc(Cn2c(-c3ccc(OC)cc3)c(F)c3cc(O)ccc32)cc1` [Compound D-16, 1-(4-(2-(Ethylamino)ethyl)benzyl)-3-fluoro-2-(4-methoxyphenyl)-1H-indol-5-ol] was tested, and the IC50 was less than 1 nM.

`Cc1ccccc1-c1c(F)c2c3cn[nH]c3ccc2n1Cc1ccc(CCNCCF)cc1` [Compound D-101, 2-Fluoro-N-(4-((8-fluoro-7-(o-tolyl)pyrrolo[3,2-e]indazol-6(3H)-yl)methyl)phenethyl)ethan-1-amine] showed an IC50 of less than 1 nM.

In the case of `COc1ccc(-c2c(F)c3cc(O)ccc3n2Cc2ccc(CCNC3CC3)cc2)cc1` [Compound D-15, 1-(4-(2-(Cyclopropylamino)ethyl)benzyl)-3-fluoro-2-(4-methoxyphenyl)-1H-indol-5-ol], the IC50 is reported as less than 1 nM.

`COc1ccc(-c2c(C)c3cc(O)ccc3n2Cc2ccc(CCNC(C)C)cc2)cc1` [Compound D-08, 1-(4-(2-(Isopropylamino)ethyl)benzyl)-2-(4-methoxyphenyl)-3-methyl-1H-indol-5-ol] gave an IC50 of 1 to 10 nM.

`CCNCCc1ccc(CC2=C(c3ccccc3C)CCOc3cc(O)ccc32)cc1` [Bx-07, 5-(4-(2-(Ethylamino)ethyl)benzyl)-4-(o-tolyl)-2,3-dihydrobenzo[b]oxepin-8-ol] gave an IC50 of less than 1 nM.

For `Cc1cccc(C)c1-c1c(F)c2cc(O)ccc2n1Cc1ccc(CCNC2CCC2)cc1` [Compound D-50, 1-(4-(2-(Cyclobutylamino)ethyl)benzyl)-2-(2,6-dimethylphenyl)-3-fluoro-1H-indol-5-ol], the IC50 was less than 1 nM.

`COc1ccc(-c2c(F)c3cc(O)ccc3n2Cc2ccc(CCNCCF)cc2)c(C)c1` [Compound D-103, 3-Fluoro-1-(4-(2-((2-fluoroethyl)amino)ethyl)benzyl)-2-(4-methoxy-2-methylphenyl)-1H-indol-5-ol] gave an IC50 of less than 1 nM.

`Oc1ccc2c(c1)c(F)c(-c1ccccc1Cl)n2Cc1ccc(CCNC2CC2)cc1` [Compound D-37, 2-(2-Chlorophenyl)-1-(4-(2-(cyclopropylamino)ethyl)benzyl)-3-fluoro-1H-indol-5-ol] showed an IC50 of less than 1 nM.

Molecule `Cc1cc(O)ccc1-c1c(F)c2cc(O)ccc2n1Cc1ccc(CCNC2CC2)cc1` [Compound D-52, 1-(4-(2-(Cyclopropylamino)ethyl)benzyl)-3-fluoro-2-(4-hydroxy-2-methylphenyl)-1H-indol-5-ol] has an IC50 of less than 1 nM.

`Cc1cc(F)ccc1-c1c(F)c2cc(O)ccc2n1Cc1ccc(CCNC2CC2)cc1` [Compound D-36, 1-(4-(2-(Cyclopropylamino)ethyl)benzyl)-3-fluoro-2-(4-fluoro-2-methylphenyl)-1H-indol-5-ol] gave an IC50 of less than 1 nM.

With `COc1ccc(-c2c(C)c3cc(O)ccc3n2Cc2ccc(CCNCC3CC3)cc2)cc1` [Compound D-03, 1-(4-(2-((Cyclopropylmethyl)amino)ethyl)benzyl)-2-(4-methoxyphenyl)-3-methyl-1H-indol-5-ol] the IC50 was 1 to 10 nM.

In the case of `Oc1ccc2c(c1)c(F)c(-c1ccccc1C(F)(F)F)n2Cc1ccc(CCNCC2CC2)cc1` [Compound D-40, 1-(4-(2-((Cyclopropylmethyl)amino)ethyl)benzyl)-3-fluoro-2-(2-(trifluoromethyl)phenyl)-1H-indol-5-ol], the IC50 is reported as less than 1 nM.
